pIC50: −log10 of the molar value.
Key:
Format in all cases: cell-based
A549, lung carcinoma = assay: CellTiter-Glo cell viability assay, cancer cell cytotoxicity/anti-proliferation panel (Chempartner)
Procedure: (§1) In this study, the biological activity of certain compounds of the present invention on cancer cell cytotoxicity/anti-proliferation panel was tested using the CellTiter-Glo® cell viability assay. The compounds were dissolved in DMSO to make 10 mM solution.
(§2) The cell lines tested were all selected from the Chempartner's cell collection and included: Caco-2 ATCC colon adenocarcinoma; TE-6 RIKEN esophagus, carcinoma; PC-3 ATCC prostate adenocarcinoma; T47D, breast ductal carcinoma; U251, brain human glioma; A549, lung carcinoma; OMP-2, multiple myeloma; SK-HEP-1, liver adenocarcinoma; PANC-1, pancreas ductal carcinoma; AsPC-1, pancreas, ductal carcinoma; and U-87 MG, brain glioblastoma.
(§3) For the assays described herein, absolute inhibition of cells growth (%) and absolute IC50 (Abs IC50; […]) were used to derive a value that can be used to compare results within and across runs in the same assay, as well as between different assays.
(§4) • a. Prepare complete medium: Add FBS and appropriate additives according to the information sheet provided by the vendor. Mix gently. • b. Check the cell name and complete medium and passage number marked on the flask. For adherent cell lines, refer to c to k. For suspension cell lines, refer to g to k. • c. Remove and discard culture medium using a vacuum pump. • d. Briefly rinse the cell layer with 0.25% (w/v) trypsin-0.038% (w/v) EDTA solution to remove all traces of serum that contains trypsin inhibitor. • e. Add 3.0 ml of trypsin-EDTA solution to flask and observe cells under an inverted microscope until cell layer is dispersed. • f. Add 8.0 ml of complete growth medium and aspirate cells by gently pipetting. • g. Transfer the cell suspension to a centrifuge tube and centrifuge at 800-1000 rpm for 3-5 minutes. • h. Discard the supernatant using a vacuum pump. • i. Add appropriate volume of complete medium. Suspend the cell pellet by gently pipetting. • j. Count the cell numbers with Vi-cell XR and adjust cells to appropriate density. • k. Add 100 μL of cell suspension to 96-well opaque-walled clear bottom plates according to the planned plate layout and place the plates in the CO2 incubator overnight. • l. Plate layout:
(§5) • Plate preparation of testing articles. 10 mM stock solution of each one of the compounds (provided as powder) was prepared in DMSO. […] 0.5 μL of each of the diluted compounds was transferred to the wells containing 100 μL of the culture medium. The total dilution was 200 fold. Cells were incubated with the compounds for 72 hours at 5% CO2, 37° C.
(§6) • Thaw the CellTiter-Glo buffer and equilibrate to room temperature prior to use. • Equilibrate the lyophilized CellTiter-Glo substrate to room temperature prior to use. • Transfer the appropriate volume of CellTiter-Glo buffer into the amber bottle containing CellTiter-Glo substrate to reconstitute the lyophilized enzyme/substrate mixture. This forms the CellTiter-Glo reagent. • Mix by gently vortexing, swirling or by inverting the contents to obtain a homogeneous solution. The CellTiter-Glo substrate should go into solution easily in less than one minute.
(§7) • Observe the cell morphology under an inverted microscope after corresponding treatment. • Equilibrate the plate and its contents to room temperature for approximately 30 minutes. • Add 100 μL of CellTiter-Glo reagent to the assay plate by Multidrop Combi instrument. • Mix contents for 10 minutes on an orbital shaker to induce cell lysis. • Allow the plate to incubate at room temperature for 10 minutes to stabilize luminescent signal. • Paste the clear bottom with white back seal and record luminescence with Enspire. The settings should be: Luminescence, measurement time 0.1 ms.
(§8) Inhibition (%) and absolute IC50 (μM) of each compound was calculated with XLFit curve fitting software that is compatible to Activity Base.

[1] = system: PANC-1, pancreas ductal carcinoma; assay: as above; settings: for pIC50: Homo sapiens, PANC-1, 72 h, read-out: IC50 (absolute IC50)
Procedure: as §1, §2, §3, §4, §5, §6, §7, §8

[2] = system: AsPC-1, pancreas, ductal carcinoma; assay: as above
Procedure: as §1, §2, §3, §4, §5, §6, §7, §8

[3] = system: T47D, breast ductal carcinoma; assay: as above; settings: T47D
Procedure: as §1, §2, §3, §4, §5, §6, §7, §8

[4] = system: U-87 MG, brain glioblastoma; assay: as above; settings: for pIC50: Homo sapiens, 72 h, read-out: IC50 (absolute IC50)
Procedure: as §1, §2, §3, §4, §5, §6, §7, §8

[5] = system: PANC-1 (pancreatic carcinoma); assay: XTT cytotoxicity assay (Pharma Seed); settings: Homo sapiens, 48 hours, 20, 10, 5, 1 μM, assay medium 1% FBS
Procedure: In this study, the cytotoxicity of several compounds of the present invention on lung and pancreatic cancer cell was evaluated.
PANC-1 (pancreatic carcinoma) culture medium: DMEM (High Glucose), supplemented with 10% FBS (heat inactivated), 2 mM L-glutamine, and 1% of Pen/Strep/Amp solution. PANC-1 assay medium: DMEM (High Glucose), supplemented with 1% FBS (heat inactivated), 2 mM L-glutamine, and 1% of Pen/Strep/Amp solution.
Each of the tested compounds was dissolved in DMSO to reach a stock concentration of 20 mM (and stored at −15° C.-−25° C. until use. Compound Ia28 (MW 484 g/mol, 3.05 mg total) was dissolved in 0.315 mL; compound Ia9 (MW 484 g/mol, 2.33 mg total) was dissolved in 0.241 mL; and compound Ia6 (MW 428.3 g/mol, 2.25 mg total) was dissolved in 0.262 mL.
On the day of incubation with the cells, each compound was diluted in DMSO to reach 2 mM, 1 mM, 0.5 mM, 0.1 mM stock concentrations (1:10, 1:20, 1:40 and 1:200), and each of these stocks was further diluted in assay medium 1:100 for final concentration of 20 μM, 10 μM, 5 μM, and 1 μM.
Part 1—cell number calibration. PANC-1 and A549 cells were each plated in a 96 well plate, in their culture medium, at various cell concentrations per well, in triplicates, and were allowed to attach for 24 hours. Thereafter, culture medium was discarded, assay medium was added, and the cells were incubated for additional 72 hours. Finally, assay medium was discarded, and fresh culture medium was added to the cells along with 50 μl XTT reagent. The OD was measured every two hours for 6 hours (three times).
The highest cells number/well were chosen for part 2 as follows: PANC-1 at 7,500 cells per well, A549 at 5000 cells per well.
Part 2—cells incubation with tested compounds. PANC-1 and A549 cells were plated in a 96 well plate, in their culture medium, at the optimal cell concentration according to the results from the previous section and were allowed to attach for 24 hours. Thereafter, the culture medium was discarded, and fresh assay medium was added to the cells, supplemented with elevating compound concentrations. Triton 0.1% was used as positive control for cell death. The cells were incubated for another 48 hours (TBD upon microscopic observation). Finally, fresh culture medium was added to the cells along with 50 μl XTT reagent. The OD was measured at the optimal time point according to the results in the previous section.

TNF-α = assay: LPS induced cytokine release assay, TNF-α by ELISA in PBMCs; settings: human PBMCs; for TNF-α: 72 h, ELISA (LPS control 18.16)
From the text: (§9) This study was aimed to test the effect of 12 compounds (THCA, Ia1, Ia5, Ia6, Ia9, Ia11, Ia15, Ia17, Ia24, Ia25, Ia27, and Ia28) on human peripheral blood mononuclear cells (PBMCs) challenged by lipopolysaccharide (LPS) through monitoring multiple inflammatory endpoints.
(§10) Blood samples were collected from healthy volunteers according to protocols that have been reviewed and approved by the Chempartner Institutional Ethic Committee (IEC) upon signing an Informed Consent Form (ICF).
(§11) Fresh PBMCs were isolated and seeded into 96-well plate, and diluted solutions of the tested compounds and 0.1 μg/mL LPS were then added (in triplicates). To serve as control, 3 wells with PBMCs only, 3 wells with 0.1 μg/mL LPS, and 2 wells with 1 μg/mL dexamethasone (Dex) and 0.1 μg/mL LPS were included. After 72 hours incubation, supernatant was collected for tumor necrosis factor-α (TNF-α) measurement by enzyme-linked immunosorbent assay (ELISA), and cell pellets were harvested for cell proliferation measurement by CellTiter-Glo® Luminescent Cell Viability Assay (CTG).
(§12) The human blood sample from an individual donor was diluted by the same volume of sterile phosphate buffered solution (PBS) and mixed sufficiently by gentle shake. 15 mL Lymphoprep™ medium was transferred into a new 50 mL centrifuge tube, and the diluted blood sample (30 mL) was then carefully added onto the surface of the medium, which consequently contained Ficoll 400 and blood in a volume ratio of 1:2. Four interfaces were observed after centrifugation, which are, from top to bottom, layers of plasma, mononuclear cells, Ficoll medium, and red blood cells (RBCs). Plasma was absorbed, and mononuclear cells were then transferred into another new sterile centrifuge tube. Then, sterile PBS buffer was added into the collected PBMCs for washing, at a volume ratio of 3:1. PBMCs were washed with 5-10 mL PBS twice before cell counting with cytometer. Cells were centrifuged at 350×g, for 10 min, at 20° C. with the acceleration (5) and deceleration (5) settings during the centrifugation. The cells were resuspended with RPMI 1640 complete medium (containing 10% FBS) for assay, and the density was adjusted with RPMI 1640 complete medium to the final concentration of 2E6 cells/mL. Cells suspension of the PBMCs (100 μL/well) were seeded into 96-well plate (#3903).
(§13) Diluted solutions of the tested compounds were prepared with RPMI 1640 complete medium according to the following layout. Compounds were prepared at 5-fold of concentration (50 μM), and then were diluted to the working concentration of 10 μM with RPMI 1640 complete medium and made 10-fold serially dilution (2 points). The diluted compounds (50 μL/well) were added to the indicated wells, and the plate was incubated at 37° C., 5% CO2, for 72 h.
(§14) LPS (0.1 μg/mL, 100 μL) was added into each well. Dex (1 μg/mL) was included as a positive control. Plate was incubated at 37° C., 5% CO2 for 72 h. Supernatant was collected to measure TNF-α by ELISA. Cell proliferation was detected by CTG.

[6] = system: human peripheral blood mononuclear cells (PBMCs); assay: Cell proliferation of LPS-challenged PBMCs by CellTiter-Glo (CTG); settings: human PBMCs, 72 h (LPS control 84.50)
From the text: as §9, §10, §11, §12, §13, §14

[7] = system: SK-HEP-1, liver adenocarcinoma; assay: CellTiter-Glo cell viability assay, cancer cell cytotoxicity/anti-proliferation panel (Chempartner); settings: Homo sapiens, SK-HEP1, 72 h; read-out: IC50 (absolute IC50)
Procedure: as §1, §2, §3, §4, §5, §6, §7, §8

[8] = 72 hours, compounds 10 μM starting, STS 2 μM starting, 10-pt, 3-fold dilution

Compound `CCCCCc1cc2c(c(O)c1C(=O)N/N=C/c1ncccn1)[C@@H]1C=C(C)CC[C@H]1C(C)(C)O2` [Ia16, (6aR,10aR)-1-hydroxy-6,6,9-trimethyl-3-pentyl-N′-((E)-pyrimidin-2-ylmethylene)-6a,7,8,10a-tetrahydro-6H-benzo[c]chromene-2-carbohydrazide] has an Inhibition (A549, lung carcinoma; A549, 72 hours, compounds 10 μM starting, STS 2 μM starting, 10-pt, 3-fold dilution) of 70.01%, a pIC50 (A549, lung carcinoma; Homo sapiens, A549, 72 h, read-out: IC50 (absolute IC50)) of 5.26 and a pIC50 [1] of 5.73. For the same compound, the Inhibition ([1]; PANC-1, 72 hours, compounds 10 μM starting, STS 2 μM starting, 10-pt, 3-fold dilution) was 85.71%, the Inhibition ([2]; AsPC-1, 72 hours, compounds 10 μM starting, STS 2 μM starting, 10-pt, 3-fold dilution) was 67.70% and the pIC50 ([2]; Homo sapiens, ASPC1, 72 h, read-out: IC50 (absolute IC50)) was 5.36. It also gave a pIC50 ([3]; Homo sapiens, 72 h, read-out: IC50 (absolute IC50)) of under 5.00, an Inhibition [3, 8] of 47.20% and an Inhibition [4, 8] of 73.80%. For the same compound, the pIC50 [4] was 5.47 and the pIC50 [5] was 5.15.

With `C=C(C)[C@@H]1CCC(C)=C[C@H]1c1c(O)cc(CCCCC)c(C(=O)NCCN2CCCC2)c1O` [Ia27, (1′R,2′R)-2,6-dihydroxy-5′-methyl-4-pentyl-2′-(prop-1-en-2-yl)-N-(2-(pyrrolidin-1-yl)ethyl)-1′,2′,3′,4′-tetrahydro-[1,1′-biphenyl]-3-carboxamide] the TNF-α (TNF-α; compound 1 μM + 0.1 μg/mL LPS) was 36.23 pg/mL, the TNF-α (TNF-α; compound 10 μM + 0.1 μg/mL LPS) was 22.09 pg/mL and the “change of TNF-α expression in LPS-treated cells” value (TNF-α; tested concentrations of 1 M and 10 M (so in the source)) was “decreased TNF-α expression”. For the same compound, the CTG signal ([6]; compound 1 μM + 0.1 μg/mL LPS) was 81.90 10^4, the CTG signal ([6]; compound 10 μM + 0.1 μg/mL LPS) was 78.67 10^4 and the pIC50 [5] was 5.12.

With `CCCCCc1cc2c(c(O)c1C(=O)NCCNc1ncccn1)[C@@H]1C=C(C)CC[C@H]1C(C)(C)O2` [Ia31, (6aR,0aR)-1-hydroxy-6,6,9-trimethyl-3-pentyl-N-(2-(pyrimidin-2-ylamino)ethyl)-6a,7,8,10a-tetrahydro-6H-benzo[c]chromene-2-carboxamide] the pIC50 [5] was 5.07.

`CCCCCc1cc2c(c(O)c1C(=O)NCCN1CCCC1)[C@@H]1C=C(C)CC[C@H]1C(C)(C)O2` [Ia32, (6aR,0aR)-1-hydroxy-6,6,9-trimethyl-3-pentyl-N-(2-(pyrrolidin-1-yl)ethyl)-6a,7,8,10a-tetrahydro-6H-benzo[c]chromene-2-carboxamide] showed a pIC50 [5] of 5.41.

Compound `CCCCCc1cc2c(c(O)c1C(=O)NCCn1ccnc1)[C@@H]1C=C(C)CC[C@H]1C(C)(C)O2` [Ia33, (6aR,0aR)—N-(2-(1H-imidazol-1-yl)ethyl)-1-hydroxy-6,6,9-trimethyl-3-pentyl-6a,7,8,10a-tetrahydro-6H-benzo[c]chromene-2-carboxamide] has a pIC50 [5] of 5.17.

Compound `CN[C@@H]1C[C@H]2O[C@@](C)([C@@H]1OC)n1c3ccccc3c3c4c(c5c6ccccc6n2c5c31)C(=O)NC4` [STS, Staurosporine, reference compound] has a pIC50 [7] of 7.15, a pIC50 [1] of 7.40 and a pIC50 [4] of 7.09.

Source: patent US20210087159A1, “TETRAHYDROCANNABINOLIC- CA[…] DERIVATIVES AND USES THEREOF” (AL&AM […]., priority 2018, published 2021)
